In assay [1] the test system is cisplatin-induced vomiting. The experiment in a line: Activity against cisplatin-induced vomiting of beagle. The assay is classed as in vivo. Conditions: through the vein of forefoot, one hour after 3 mg/kg cisplatin, 5-hour period. The protocol: [Experimental Example 2] Activity against cisplatin-induced vomiting of beagle
Beagles weighing 7 to 12 kg were used. 3 mg/kg of cisplatin (a product of Sigma) (1 ml/kg of physiological saline) was administered to each beagle through the vein of one of its forefeet. One hour after the administration, physiological saline (0.2 ml/kg) was administered to a control group of beagles and a solution of a test compound in physiological saline was administered to a test group of beagles, each through the vein of the other forefoot. The frequency of vomiting observed over a 5-hour period from the administration of cisplatin was recorded and the inhibitory ratio of the test compound was calculated according to the following formula.

For assay [2], the system named is gastric emptying function. Briefly: Activity for increasing gastric emptying function. Format: in vivo, rat (Fischer male). The settings on record: oral, one hour before test food, *: minimum effective dose. The protocol: [Experimental Example 3] Activity for increasing gastric emptying function
This experiment was made according to the method of Decktor et al. [see Eur. J. Pharmacol., 147, 313-316 (1988)]. Fischer male rats (weight: 160 to 180 g) were fasted for 18 hours before 3 ml of a test food comprising methylcellulose, beef bouillon, casein, sugar and corn starch was orally administered to each rat. One hour after the administration, the stomach was extirpated from each rat. The gastric emptying ratio was calculated from the weight of the test food remaining in the stomach. The percentage increment of the gastric emptying function was determined by comparing the gastric emptying ratio of a medicated rat with that of a control rat. Each test compound (5 ml/kg) was orally administered one hour before the administration of the test food. BRL 24924 was used as a control in this experiment.

The next assay has as its target T1, serotonin 4 (Rattus norvegicus, UniProt Q62758).
T1 construct: The esophagus of a rat was extirpated and freed from the outer tunica propria to obtain the muscular layer of mucosa; from tissue; host or cells: muscular layer of mucosa of rat esophagus
The experiment in a line: Effect of relaxing the contraction of muscular layer of esophageal mucosa of rat by stimulation with carbachol (activity of serotonin 4 as agonist). Format: cell-based. The protocol: This experiment was made according to the method of Baxter et al. [see Naunyn-Schmiedeberg's Arch. […] The esophagus of a rat was extirpated and freed from the outer tunica propria to obtain the muscular layer of mucosa. […] A load of 0.5 g was applied to each sample and the reaction was recorded isometrically. 1 μM of carbachol was added to each sample to cause contraction, followed by the cumulative addition thereto of a solution of a test compound. The effect of the test compound was determined as the ratio (%) of relaxation based on the maximum contraction caused by carbachol.

A further assay concerns the target T2, serotonin 3 (Cavia porcellus, UniProt O70212).
T2 construct: from tissue; host or cells: nonterminal ileum of Hartley male guinea pig
T2 sequence (O70212 20-490): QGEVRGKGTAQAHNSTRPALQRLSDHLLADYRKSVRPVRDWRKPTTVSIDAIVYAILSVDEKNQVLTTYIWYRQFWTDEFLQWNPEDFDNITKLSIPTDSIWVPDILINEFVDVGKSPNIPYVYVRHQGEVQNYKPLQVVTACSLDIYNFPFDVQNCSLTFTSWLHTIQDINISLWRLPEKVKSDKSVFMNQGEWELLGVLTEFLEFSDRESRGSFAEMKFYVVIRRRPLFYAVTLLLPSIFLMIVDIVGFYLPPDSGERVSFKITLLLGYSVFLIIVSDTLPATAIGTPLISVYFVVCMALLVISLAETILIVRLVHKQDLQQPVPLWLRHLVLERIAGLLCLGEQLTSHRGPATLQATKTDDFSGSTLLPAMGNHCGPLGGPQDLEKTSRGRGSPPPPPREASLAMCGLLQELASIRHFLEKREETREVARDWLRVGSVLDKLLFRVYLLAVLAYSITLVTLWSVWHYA
Briefly: Antagonism against 2-methyl-serotonin-induced contraction of ileum (serotonin 3 antagonism). The settings on record: vs 2-methylserotonin, 30 minutes with test compound, 37° C. Format: cell-based, guinea pig (Hartley male). The method, then:
[Experimental Example 1] Antagonism against 2-methyl-serotonin-induced contraction of ileum (serotonin 3 antagonism)
This experiment was made according to the method of Sanger et al. [see Eur. J. Pharmacol., 159, 113-124 (1989)]. The nonterminal ileum of a Hartley male guinea pig was suspended in the Krebs solution (37° C.) by applying a load of 0.5 g, and a gaseous mixture comprising 95% of oxygen and 5% of carbon dioxide was passed through the solution. The contraction of the ileum was isometrically determined. After allowing the ileum to stand for one or more hours for stabilization, a solution of a test compound was added to the solution, and after 30 minutes, 2-methylserotonin was noncumulatively added. The pA2 value was calculated from the rightward shift of the dose-response curve of the 2-methylserotonin-induced contraction caused by the test compound according to the method of Rossum et al. [see Arch. Int. Pharmacodyn. 143, 299(1963)]. BRL 24924 (Renzapride) was used as a control in this experiment.
The structural formula of BRL 24924 is as follows: [drawing 19]

Setting [3] is: 50% relaxation of maximum contraction caused by 1 μM carbachol, cumulative addition, 37° C., read-out: Effect of relaxing the muscular layer of esophageal mucosa of rat EC50.
Setting [4] is: guinea pig nonterminal ileum, read-out: pA2 (converted).
The mark [5] stands for this setting: pA2, guinea pig nonterminal ileum.

Counter-ions that a name gives are not always drawn. Like-named read-outs stand apart in the source and are kept apart here.

T1 sequence (Q62758 whole entry): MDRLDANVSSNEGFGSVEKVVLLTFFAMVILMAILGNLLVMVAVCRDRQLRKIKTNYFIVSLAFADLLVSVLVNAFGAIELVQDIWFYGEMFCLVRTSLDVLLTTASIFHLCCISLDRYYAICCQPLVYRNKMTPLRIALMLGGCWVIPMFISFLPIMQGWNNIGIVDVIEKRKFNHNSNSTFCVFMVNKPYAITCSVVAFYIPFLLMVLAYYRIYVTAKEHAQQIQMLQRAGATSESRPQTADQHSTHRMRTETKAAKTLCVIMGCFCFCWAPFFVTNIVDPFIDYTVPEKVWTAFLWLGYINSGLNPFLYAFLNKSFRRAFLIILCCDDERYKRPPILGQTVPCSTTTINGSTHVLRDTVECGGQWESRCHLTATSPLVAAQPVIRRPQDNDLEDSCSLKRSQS

For the compound `CC#C[C@H](C)Oc1cc(N)c(Cl)cc1C(=O)NC1CC2COCC(C1)N2C` (stereo partly drawn) [Example 2], the entries for the “Inhibitory ratio against cisplatin-induced vomiting (%)” value (“Inhibitory ratio … (%)” below) in assay [1] (0.03 mg/kg) and in assay [1] (0.1 mg/kg) were 14% and 53%, respectively. Moreover, the “Percentage increment of gastric emptying function (%)” value (from here on “Percentage increment … (%)”) was determined as 20.5% in assay [2] (0.01 mg/kg), 19.7% in assay [2] (0.03 mg/kg), 19.8% in assay [2] (0.1 mg/kg) and 30.6% in assay [2] (0.3 mg/kg). Further, the EC50 on serotonin 4 was found to be 82 nM.
As to `COc1cc(N)c(Cl)cc1C(=O)NC1CCN2CCCC1C2` (stereo not drawn) [BRL 24924, Renzapride, reference compound], the results for the “Inhibitory ratio … (%)” value in assay [1] (0.03 mg/kg) and in assay [1] (0.1 mg/kg) were 19% and 61%, respectively. Moreover, the entries for the “Percentage increment … (%)” value in assay [2] (0.1 mg/kg), in assay [2] (0.3 mg/kg) and in assay [2] (1 mg/kg) were 1.9%, 6.5% and 18.5%, respectively. For the same compound, the EC50 on serotonin 4 (setting [3]) worked out at 300 nM. Also, the Kb at serotonin 3 (setting [4]) was 251 nM.
Turning to `CC#C[C@H](C)Oc1cc(N)c(Cl)cc1C(=O)NC1CCC2CCC1N2C` (single isomer, unassigned) [53 fraction 2], the “Percentage increment … (%)” value in assay [2] (0.1 mg/kg) is given as 14.4%; in assay [2] (0.3 mg/kg), 16.1%. Moreover, the 50% effective concentration (EC50) on serotonin 4 (setting [3]) was found to be 310 nM.
With `CC#C[C@H](C)Oc1cc(N)c(Cl)cc1C(=O)NC1CCN2CCCC1C2` (single isomer, unassigned) [31 fraction 2], the “Inhibitory ratio … (%)” value in assay [1] (0.03 mg/kg) was determined as 63%; in assay [1] (0.1 mg/kg) it was 92%. Further, the “Percentage increment … (%)” value in assay [2] (0.01 mg/kg) is reported as 4.5%; in assay [2] (0.03 mg/kg) it was 24.6%; in assay [2] (0.1 mg/kg), 25.8%; in assay [2] (0.3 mg/kg), 33.2%. Also, the EC50 on serotonin 4 (setting [3]) stood at 190 nM. In addition, the Kb on serotonin 3 (setting [4]) is 5.01 nM.
For the compound `CC#C[C@H](C)Oc1cc(N)c(Cl)cc1C(=O)NC1CCN2CCCC1C2` (stereo partly drawn) [Example 6, N-(1-Azabicyclo[3.3.1]non-4α-yl)-4-amino-5-chloro-2-((S-1-methyl-2-butynyl/oxybenzamide hydrochloride], the “Inhibitory ratio … (%)” value in assay [1] (0.1 mg/kg) worked out at 77%. The EC50 at serotonin 4 (setting [3]) came to 110 nM. Besides, on serotonin 3 (setting [4]), the Kb is 20 nM.
Take `CC#C[C@H](C)Oc1cc(N)c(Cl)cc1C(=O)NC1CC2CC(OC)C(C1)N2C` (single isomer, unassigned) [28 fraction 2]: the EC50 on serotonin 4 (setting [3]) was greater than 10000 nM.
The same measure, in the same setting: the figure for `CC#C[C@H](C)Oc1cc(N)c(Cl)cc1C(=O)NC1CC2CCCC(C1)N2C` (stereo partly drawn) [Example 4, hydrochloride] is 1300 nM; for `CC#C[C@H](C)Oc1cc(N)c(Cl)cc1C(=O)NC1C2CC3CC1CN(C3)C2` (stereo partly drawn) [Example 55, (S)-N-(1-Azatricyclo[3.3.1.1^3,7]dec-10-yl)-4-amino-5-chloro-(1-methyl-2-butynyl)oxybenzamide hydrochloride] it is 640 nM.
With `CC#C[C@H](C)Oc1cc(N)c(Cl)cc1C(=O)NC1CCN2CCOC1C2` (stereo partly drawn) [Example 15, N-(4-Oxa-1-azabicyclo[3.3.1]non-6α-yl)-4-amino-5-chloro-2-((S)-1-methyl-2-butynyl/oxybenzamide hydrochloride], the “Percentage increment … (%)” value in assay [2] (0.1 mg/kg) was 24.6%; in assay [2] (0.3 mg/kg) it was 30.6%. In addition, the concentration for a half-maximal effect (EC50) at serotonin 4 (setting [3]) came to 35 nM.
As to `CC#C[C@H](C)Oc1cc(N)c(Cl)cc1C(=O)NC1C2CN(C)CC1CN(C)C2` (stereo partly drawn) [Example 44, (S)-N-(3,7-Dimethyl-3,7-diazabicyclo[3.3.1]non-9-yl)-4-amino-5-chloro-2-(1-methyl-2-butynyl)oxybenzamide hydrochloride], the EC50 at serotonin 4 was 110 nM.
As to `CC#C[C@H](C)Oc1cc(N)c(Cl)cc1C(=O)NC1CCC2CCC1N2C` (single isomer, unassigned) [53 fraction 2-1], the “Percentage increment … (%)” value in assay [2] (0.01 mg/kg) is listed as 14.4%; in assay [2] (0.03 mg/kg), 22.2%; in assay [2] (0.1 mg/kg) it was 26.7%; in assay [2] (0.3 mg/kg), 29.0%. In addition, at serotonin 4 (setting [3]), the EC50 amounted to 300 nM. Further, the Kb at serotonin 3 (setting [5]) was 2.51 nM.
With `CC#C[C@H](C)Oc1cc(N)c(Cl)cc1C(=O)NC1CC2CN(C)CC(C1)N2C` (stereo partly drawn) [Example 19, (S)-N-(3,9-Dimethyl-3,9-diazabicyclo[3.3.1]non-7α-yl)-4-amino-5-chloro-2-(1-methyl-2-butynyl/oxybenzamidedihydrochloride], the EC50 on serotonin 4 (setting [3]) is greater than 10000 nM.
Still for that read-out and setting: the figure for `CC#C[C@H](C)Oc1cc(N)c(Cl)cc1C(=O)NC1CC2CC(OCC)CC(C1)N2C` (stereo partly drawn) [Example 50, (S)-N-(3-Ethoxy-9-methyl-9-azabicyclo[3.3.1]-1non-9α- or 9β-yl)-4-amino-5-chloro-2-(1-methyl-2-butynyl)oxybenzamide hydrochloride] is greater than 10000 nM; for `CC#CC(CCOCC)Oc1cc(N)c(Cl)cc1C(=O)NC1CC2CCC(C1)N2C` (stereo not drawn) [Example 42, N-(8Methyl-8-azabicylo[3.2.1]oct-3α-yl)-4-amino-5-chloro-2-(1-ethoxyethyl-2-butynyl]oxybenzamide hydrochloride] it is 6200 nM; for `CC#C[C@H](C)Oc1cc(N)c(Cl)cc1C(=O)NC1C2CCC1CN(C)C2` (stereo partly drawn) [Example 35, (S)-N-(3-Methyl-3-azabicyclo[3.2.1]oct-8α-yl) -4-amino-5-chloro-2-(1-methyl-2-butynyl)oxybenzamide hydrochloride] it is 2000 nM.
Still for that read-out and setting: the figure for `CC#C[C@H](C)Oc1cc(N)c(Cl)cc1C(=O)NC1CC2CC(OC)C(C1)N2C` (single isomer, unassigned) [28 fraction 1] is greater than 10000 nM.
As to `CC#C[C@H](C)Oc1cc(N)c(Cl)cc1C(=O)NC1CCN2CCCC1C2` (single isomer, unassigned) [31 fraction 1], the “Percentage increment … (%)” value in assay [2] (0.03 mg/kg) was found to be 0.8%; in assay [2] (0.1 mg/kg), 0.8%; in assay [2] (0.3 mg/kg), 14.1%. At serotonin 4 (setting [3]), the EC50 was found to be 44 nM. Further, the Kb at serotonin 3 (setting [4]) is 63.1 nM.
As for `CC#C[C@H](C)Oc1cc(N)c(Cl)cc1C(=O)NC1CCC2CCC1N2C` (single isomer, unassigned) [53 fraction 2-2], the “Percentage increment … (%)” value in assay [2] (0.03 mg/kg) stood at 6.6%; in assay [2] (0.1 mg/kg) it was 21.3%; in assay [2] (0.3 mg/kg) it was 28.8%. For the same compound, the EC50 on serotonin 4 (setting [3]) was found to be 180 nM. On serotonin 3 (setting [5]), this compound had a Kb of 12.6 nM.
For the compound `CC#C[C@H](C)Oc1cc(N)c(Cl)cc1C(=O)NC1CC2CCC(C1)N2` (stereo partly drawn) [Example 29], the EC50 at serotonin 4 (setting [3]) is greater than 10000 nM.

Broadly, the EC50 is the midpoint of the concentration-response curve.
